From patent US7655395B2, “Isolation and use of ryanodine receptors” (E.I. du Pont de Nemours and Company, priority 2002, dated 2010)

Columns and labels:
[1] = target: native cockroach ryanodine receptors (roach femoral muscle membranes) (Periplaneta americana, UniProt A0ABQ8T696); assay: Radioligand displacement ([3H]-GN analog Cpd 1) on roach femoral muscle membranes; format: binding
Method: Binding to Roach Femoral Muscle Membranes:
Assays were carried out in triplicate.

[2] = tested on: recombinant Heliothis virescens ryanodine receptor (expressed in Sf9 cells); assay: Calcium release assay, Sf9 cells transiently or stably expressing Heliothis virescens ryanodine receptor (Fura-2); format: cell-based; conditions: for calcium response: Sf9 stably expressing H. virescens ryanodine receptor, FIG. 5
Method: SF9 cells were grown at 27 degrees C. in a Corning 125 ml polycarbonate Erlenmeyer flask to a density of 3.1 million cells per ml in SF900-II serum free media (Gibco catalog no. 10902-088, Invitrogen™, Carlsbad, Calif.). One million cells were transferred to one well of a Corning 6-well, flat bottom cell culture dish (Corning Inc., Acton, Mass., catalog no. 3516). SF900-II media was used to bring the final volume in the dish to 2 ml and the cells were incubated at 27 degrees C. for 21 h. Following the incubation the media was aspirated from the dish and replaced with 1 ml of SF900-II media pre-warmed to 27 degrees C.
In the case of the vectors containing the Cre recognition elements, the transfection solution was mixed in a 1.5 ml microfuge tube by combining 5 ug of pHE7 plasmid, 5 ug of pMLS104 Cre plasmid and 0.5 ug of lacZ reporter plasmid, 15 ug of cellfectin reagent (Invitrogen cat. #10362-010) and SF900-II serum free media (Gibco catalog #10902-088, Invitrogen™, Carlsbad, Calif.) in a total volume of 500 ul. The solution was incubated for 1 hour at room temperature just prior to the transfection.
The transfection was accomplished by adding the transfection solution drop-wise to the dish and incubating 4 h at room temperature with gentle rocking. After the 4 h incubation the media was replaced with 2 ml of SF900-II media pre-warmed to 27 degrees C. and the cells were incubated 3 days at 27 degrees C.
Several drops of a suspension of recombinant Spodoptera frugiperda cell line, Sf9, transiently expressing insect ryanodine receptors were placed on a poly-L-lysine-coated coverslip and allowed to attach. Cells were then rinsed in physiological saline having the following composition (mM): NaCl 130; KCl 5.4; MgCl2 1.2; CaCl2 1.0; NaHCO3 4.2; NaH2P04 7.3; Glucose 10; Sucrose 63; MES 20; pH 6.3. Cells were then bathed in physiological saline containing the calcium sensitive fluoroprobe, Fura-2 AM (2 μM), and Pluronic F127 (0.002%) for 30 min. Cells were rinsed in standard physiological saline for at least 15 min prior to testing. […]
For studies involving the stable recombinant Spodoptera frugiperda cell line, Sf9, (other cell lines could also be used such as Sf21, S2, etc) expressing an insect ryanodine receptor from Drosophila melanogaster, or Heliothis virescens (alternatively receptors from other species such as Myzus persicae, Peregrinus maidis, Aphis gossypii, etc) were grown in T75 (or other appropriate sized) flasks in supplemented Grace's insect medium. […] After a 30 minute equilibration period the cell plate was tested using a Molecular Devices' FlexStation™ system with dual wavelength excitation (340 and 380 nm) and fluorescence emission measured at 510 nm. […]

Chain of native cockroach ryanodine receptors (roach femoral muscle membranes) (A0ABQ8T696 entry or part of it): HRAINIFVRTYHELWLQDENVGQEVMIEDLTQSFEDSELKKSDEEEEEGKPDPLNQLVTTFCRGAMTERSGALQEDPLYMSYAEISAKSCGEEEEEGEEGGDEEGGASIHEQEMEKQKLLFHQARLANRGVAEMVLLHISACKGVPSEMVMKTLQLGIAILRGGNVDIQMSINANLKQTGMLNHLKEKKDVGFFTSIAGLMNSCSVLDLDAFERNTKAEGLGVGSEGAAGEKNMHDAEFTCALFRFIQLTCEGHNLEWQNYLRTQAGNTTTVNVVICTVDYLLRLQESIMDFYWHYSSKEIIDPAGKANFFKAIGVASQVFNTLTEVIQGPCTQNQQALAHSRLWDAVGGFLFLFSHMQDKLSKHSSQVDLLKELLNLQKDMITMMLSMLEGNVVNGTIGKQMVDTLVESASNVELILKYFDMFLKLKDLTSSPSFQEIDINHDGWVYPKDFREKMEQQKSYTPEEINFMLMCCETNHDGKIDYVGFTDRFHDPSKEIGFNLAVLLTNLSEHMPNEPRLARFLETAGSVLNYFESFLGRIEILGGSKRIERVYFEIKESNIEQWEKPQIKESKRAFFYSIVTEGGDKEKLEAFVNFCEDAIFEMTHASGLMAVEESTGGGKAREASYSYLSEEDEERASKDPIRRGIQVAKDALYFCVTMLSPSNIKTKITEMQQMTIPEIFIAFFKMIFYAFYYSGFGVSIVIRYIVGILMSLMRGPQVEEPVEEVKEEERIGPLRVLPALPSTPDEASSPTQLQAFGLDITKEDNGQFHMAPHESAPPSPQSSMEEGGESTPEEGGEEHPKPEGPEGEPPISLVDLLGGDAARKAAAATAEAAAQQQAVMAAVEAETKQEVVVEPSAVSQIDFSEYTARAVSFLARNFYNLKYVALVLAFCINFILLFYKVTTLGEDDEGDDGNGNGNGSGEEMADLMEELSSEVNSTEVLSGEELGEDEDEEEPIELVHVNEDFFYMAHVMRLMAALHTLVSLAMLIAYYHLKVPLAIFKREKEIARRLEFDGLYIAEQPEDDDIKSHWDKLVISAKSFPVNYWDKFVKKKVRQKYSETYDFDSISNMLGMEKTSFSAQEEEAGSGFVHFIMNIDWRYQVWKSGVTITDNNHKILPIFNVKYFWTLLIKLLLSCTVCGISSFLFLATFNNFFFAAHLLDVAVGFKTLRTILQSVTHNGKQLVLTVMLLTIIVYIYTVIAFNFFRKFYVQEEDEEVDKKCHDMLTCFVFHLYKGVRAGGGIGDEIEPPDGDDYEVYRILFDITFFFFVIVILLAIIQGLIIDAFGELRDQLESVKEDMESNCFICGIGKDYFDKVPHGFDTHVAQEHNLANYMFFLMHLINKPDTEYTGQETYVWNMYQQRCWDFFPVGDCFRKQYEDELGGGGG

SMILES | Radioligand Displacement (P. americana) ([1]; Table 6, result in words) | calcium response ([2]; caffeine 10 mM) | cytosolic [Ca2+] response ([2]; caffeine 10 mM, Sf9 transiently expressing H. virescens ryanodine receptor, 72 hr post-transfection, FIG. 4) | IC50 ([1]; displacement of [3H]-Cpd 1, roach muscle membranes, 60 min at 32° C., read-out: Displacement IC50 (nM) P. americana) [nM] | calcium response ([2]; Compound 14 1 μM)
Cn1c(=O)c2c(ncn2C)n(C)c1=O [Caffeine, reference compound] | Inactive | calcium responses elicited | increase in cytosolic [Ca^2+] |  | 
CNC(=O)c1cc(Cl)cc(C)c1NC(=O)c1cc(Br)nn1-c1ncccc1Cl [Cpd 14] |  |  |  | < 300 | calcium responses elicited
